Source: patent US20140343095A1, “Methods of Diagnosing and Treating Multiple Sclerosis” (The Brigham and Women's Hospital, Inc., priority 2009, published 2014)

Experiments:
PARP-1 [1] = target: T1, PARP-1 (Homo sapiens, UniProt P09874); assay: PARP-1 enzymatic activity in human PBMCs (PARP HT Universal Colorimetric Kit); type: cell-based; design: endogenous in cells; host or cells: human PBMCs / monocytes / dendritic cells / T and B cells from healthy controls and MS patients; conditions: healthy controls, 1 ug/ml 15-HC
Protocol: PARP-1 enzymatic activity (10A) and TNFalpha and CCL2 (10B) of PBMCs incubated with 15-HC alone, or in combination with AIQ, blocking antibodies to TLR2 or IC control.
To investigate whether the TLR2/PARP-1 axis is functional in human we activated PBMCs from healthy controls with 15-HC, in the presence or not of PARP-1 or TLR2 inhibitors.
Target sequence in this assay (P09874 whole entry): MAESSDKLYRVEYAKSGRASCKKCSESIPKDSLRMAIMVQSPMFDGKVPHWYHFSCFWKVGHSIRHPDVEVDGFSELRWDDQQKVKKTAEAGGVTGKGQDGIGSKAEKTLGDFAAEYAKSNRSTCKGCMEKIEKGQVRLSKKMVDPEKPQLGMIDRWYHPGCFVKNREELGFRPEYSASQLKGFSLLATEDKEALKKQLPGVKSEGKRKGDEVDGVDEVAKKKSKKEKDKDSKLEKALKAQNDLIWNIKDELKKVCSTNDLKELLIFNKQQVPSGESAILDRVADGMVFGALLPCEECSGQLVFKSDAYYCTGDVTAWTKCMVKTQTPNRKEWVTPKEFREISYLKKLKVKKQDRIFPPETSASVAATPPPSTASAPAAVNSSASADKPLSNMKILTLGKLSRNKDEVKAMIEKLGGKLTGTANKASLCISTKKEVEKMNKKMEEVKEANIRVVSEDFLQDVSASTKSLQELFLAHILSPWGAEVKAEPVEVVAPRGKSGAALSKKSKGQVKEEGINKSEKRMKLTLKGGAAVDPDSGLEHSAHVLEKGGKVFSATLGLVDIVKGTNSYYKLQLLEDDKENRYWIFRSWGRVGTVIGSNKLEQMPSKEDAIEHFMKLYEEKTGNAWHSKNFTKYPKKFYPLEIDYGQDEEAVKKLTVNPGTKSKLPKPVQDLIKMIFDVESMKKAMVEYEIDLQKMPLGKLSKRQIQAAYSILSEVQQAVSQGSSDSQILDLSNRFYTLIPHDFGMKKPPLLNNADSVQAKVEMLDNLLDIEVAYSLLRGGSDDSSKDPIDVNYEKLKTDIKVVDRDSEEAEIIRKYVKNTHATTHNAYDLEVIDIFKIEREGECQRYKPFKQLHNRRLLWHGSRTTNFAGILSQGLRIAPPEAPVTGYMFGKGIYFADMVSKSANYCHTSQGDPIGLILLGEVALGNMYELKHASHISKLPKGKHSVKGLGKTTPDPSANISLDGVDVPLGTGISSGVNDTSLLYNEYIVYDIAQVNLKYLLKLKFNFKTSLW

human monocytes = assay: TNFa and CCL2 production by human monocytes; type: cell-based; conditions: 1 ug/ml 15-HC
Protocol: FIGS. 10A and 10B are bar graphs showing TLR2 mediated activation of PARP-1 by 15-HC. PARP-1 enzymatic activity (10A) and TNFalpha and CCL2 (10B) of PBMCs incubated with 15-HC alone, or in combination with AIQ, blocking antibodies to TLR2 or IC control.
To investigate whether the TLR2/PARP-1 axis is functional in human we activated PBMCs from healthy controls with 15-HC, in the presence or not of PARP-1 or TLR2 inhibitors. […] Thus, 15-HC activates PARP-1 in human monocytes by a TLR2 dependent pathway that results in the release of the pro-inflammatory mediators TNFa and CCL2.

PARP-1 [2] = target: T1, PARP-1; assay: PARP-1 activity in a cell-free system with oxysterol-pretreated DNA; type: biochemical
Protocol: FIGS. 4A-D show the results of activation of microglia, macrophages and astrocytes by 15-HC. 4A, a bar graph showing PARP-1 activity in a cell-free system where recombinant PARP-1 was incubated with DNA which as been pretreated with 15-HC or 7-KC. Non-pretreated DNA was used as a negative control and ssb-DNA as a positive control. Data is shown as Mean±SEM. 4B, a pair of bar graphs showing PARP-1 activity measured in microglia, macrophages or astrocytes incubated with 15-HC or 7-KC. The data is shown as the fold of change between vehicle and lipid-treated cells (Mean±SEM). 4C, a pair of bar graphs showing percent inhibition of PARP-1 activity in microglia, macrophages or astrocytes activated with 15-HC or 7-KC […] in the presence of 5-AIQ. 4D, a table showing levels of TNF-α, CCL-2 and NO secretion by 15-HC or 7-KC treated microglia, macrophages or astrocytes (Mean±SEM).
Thus, the effect of 15-HC on PARP-1 activity was investigated using an in vitro system.
Target sequence in this assay (P09874 whole entry, species assumed): as the sequence (P09874 whole entry) above

PARP-1 [3] = target: PARP-1 (Mus musculus, UniProt P11103); assay: Cellular PARP-1 activity in microglia, macrophages or astrocytes; type: cell-based; design: host or cells: C8B4 microglia, C8-D1A astrocytes, Raw 264.7 macrophages
Protocol: 5A, a bar graph showing the time course of microglial PARP-1 activation by 15-oxysterols or 7-KC. PARP-1 activity is shown as Mean±SEM. […] (Mean±SEM) 5C, a bar graph showing activation of microglial PARP-1 by 15-HC in the presence of kinase inhibitors (Mean±SEM).
6A, a set of three bar graphs showing PARP-1 activity in microglia, macrophages or astrocytes activated with 15-HC in the presence of blocking antibodies to TLR2 or TLR4, or isotype controls (Mean±SEM).
PARP-1 activity was measured using PARP HT Universal Colorimetric Kit (Trevigen, MD, USA), following manufacturer instructions.
Cells were cultured with DMEM supplemented with 10% fetal bovine serum, 2 mM L-glutamine, 25 mM HEPES, and 1 mM sodium pyruvate. Cells in logarithmic growth were treated with 1 μg/ml of 15-HC for 1, 5, 15, and 30 minutes in serum-free medium. Blocking antibodies (Ebioscience, San Diego, Calif., USA) were added in some experiments at a final concentration of 10 ug/ml.

[4] = test system: TLR signaling proteins (TAK1, IRAK, Akt, p38-MAPK, PyK2, PKC, PI3K, ERK1/2); assay: Reverse protein arrays / western blot of signaling after 15-HC; type: cell-based, mouse; conditions: microglia or macrophage cells, 1 μg/ml 15-HC
Protocol: 5A, a bar graph showing the time course of microglial PARP-1 activation by 15-oxysterols or 7-KC. PARP-1 activity is shown as Mean±SEM. 5B, a set of eight bar graphs showing signaling pathways activated by 15-HC. Microglial cells were stimulated with 15-HC and lysed at 1, 5, and 15 minutes. Signal transduction arrays were made with the lysates and probed with phospho-specific antibodies. 15a-HC increases the phosphorylation of TAK1 (top right), IRAK (top left), Akt (second row, left), p38 MAPK (second row, right), Pyk2 (third row, left), PKC (third row, right), PI3K (bottom row, left), and Erk1/2 (bottom row, right). (Mean±SEM) 5C, a bar graph showing activation of microglial PARP-1 by 15-HC in the presence of kinase inhibitors (Mean±SEM). […]
FIG. 8 is a set of eight pairs of bolts and bar graphs showing blockade of 15-HC triggered signaling pathways with blocking antibodies to TLR2. Microglial cells were incubated with […] of TLR2 blocking antibody or isotype control 45 minutes prior the addition of 15-HC to the medium and signal transduction events were analyzed by western blot. […]
The C8B4 microglial cell line, C8-D1A astrocytes and Raw 264.7 macrophages were purchased from ATCC (Manassas, Va., USA). […] Slides were then probed, processed and analyzed as previously described (Chan et al., Nat Med 10, 1390-1396 (2004)).

Erk / PARP-1 interaction = assay: Co-immunoprecipitation of ERK and PARP-1; type: cell-based, mouse; conditions: microglia and macrophages activated with 15-HC
Protocol: 5A, a bar graph showing the time course of microglial PARP-1 activation by 15-oxysterols or 7-KC. PARP-1 activity is shown as Mean±SEM. 5B, a set of eight bar graphs showing signaling pathways activated by 15-HC. Microglial cells were stimulated with 15-HC and lysed at 1, 5, and 15 minutes. Signal transduction arrays were made with the lysates and probed with phospho-specific antibodies. 15a-HC increases the phosphorylation of TAK1 (top right), IRAK (top left), Akt (second row, left), p38 MAPK (second row, right), Pyk2 (third row, left), PKC (third row, right), PI3K (bottom row, left), and Erk1/2 (bottom row, right). (Mean±SEM) 5C, a bar graph showing activation of microglial PARP-1 by 15-HC in the presence of kinase inhibitors (Mean±SEM). 5D, an immunoblot and a bar graph showing the results of co-immunoprecipitaiton of ERK and PARP-1. Microglial cells were treated with 15-HC, lysed, immunoprecipitated with antibodies to phosphorylated Erk and then the pulled down material was probed with antibodies to PARP-1.
Thus, co-immunoprecipitation studies were carried out to better characterize the mechanisms by which 15-HC activates PARP-1. Microglia and macrophages were activated with 15-HC, ERK-specific antibodies were used for immunoprecipitation, and the pulled down material was probed with antibodies to PARP-1.

Chain of PARP-1 (Mus musculus, UniProt P11103) (P11103 whole entry): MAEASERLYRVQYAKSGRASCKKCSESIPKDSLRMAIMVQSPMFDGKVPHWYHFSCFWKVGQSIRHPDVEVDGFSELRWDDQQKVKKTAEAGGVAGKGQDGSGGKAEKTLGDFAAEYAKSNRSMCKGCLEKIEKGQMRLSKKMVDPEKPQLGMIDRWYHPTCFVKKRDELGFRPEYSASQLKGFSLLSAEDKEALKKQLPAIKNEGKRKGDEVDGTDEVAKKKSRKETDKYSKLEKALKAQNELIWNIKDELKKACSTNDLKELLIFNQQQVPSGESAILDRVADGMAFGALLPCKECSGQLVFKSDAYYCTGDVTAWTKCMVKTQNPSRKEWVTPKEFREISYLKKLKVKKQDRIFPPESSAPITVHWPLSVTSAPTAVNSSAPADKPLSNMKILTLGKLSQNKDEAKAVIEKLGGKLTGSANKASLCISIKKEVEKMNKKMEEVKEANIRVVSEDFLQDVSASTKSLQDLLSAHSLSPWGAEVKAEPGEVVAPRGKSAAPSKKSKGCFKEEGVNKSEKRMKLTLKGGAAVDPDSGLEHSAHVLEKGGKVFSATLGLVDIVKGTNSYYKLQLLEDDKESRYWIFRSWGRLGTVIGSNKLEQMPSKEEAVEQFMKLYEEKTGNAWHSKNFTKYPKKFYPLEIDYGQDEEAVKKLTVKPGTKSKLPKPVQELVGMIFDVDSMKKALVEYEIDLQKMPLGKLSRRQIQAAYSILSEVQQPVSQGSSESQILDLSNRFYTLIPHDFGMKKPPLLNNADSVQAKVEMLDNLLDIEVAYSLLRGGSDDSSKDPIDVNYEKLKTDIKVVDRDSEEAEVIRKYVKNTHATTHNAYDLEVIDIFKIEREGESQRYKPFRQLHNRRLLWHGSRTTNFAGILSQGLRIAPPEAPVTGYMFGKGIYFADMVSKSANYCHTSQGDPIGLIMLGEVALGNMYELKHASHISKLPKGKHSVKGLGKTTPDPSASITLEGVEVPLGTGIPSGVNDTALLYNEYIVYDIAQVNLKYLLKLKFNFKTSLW

What does the source list for 15-hydroxycholestene [15-HC]?
PARP-1 enzymatic activity in human PBMCs (PARP-1 [1]): results in the activation; production of TNFa and CCL2 (human monocytes): resulted in production; PARP-1 activity, oxysterol alone (PARP-1 [2]; recombinant PARP-1 incubated with 15-HC alone): did not have a significant effect; PARP-1 activity, DNA pre-incubated with oxysterol (PARP-1 [2]; recombinant PARP-1 plus DNA pretreated with 15-HC): levels comparable to those achieved with 7-KC or single strand break DNA; incubation time resulting in activation of PARP-1 (PARP-1 [3]; macrophages or microglia): 5 min; activation of cellular PARP-1 (PARP-1 [3]; macrophages, microglia or astrocytes): dose-dependent activation; phosphorylation of TAK1, IRAK, Akt, p38-MAPK, PyK2, PKC, PI3K and ERK1/2 [4]: resulted in the phosphorylation; interaction of Erk with PARP-1 (Erk / PARP-1 interaction): significant interaction
